Assay results as given in ChEMBL document CHEMBL1681651, “A broad spectrum anticancer nucleoside with selective toxicity against human colon cells in vitro” (2011).

Key:
Format in all cases: functional
SF-268 = experiment: Growth inhibition of human SF268 cells assessed as cell growth at 0.1 uM after 48 hrs by SRB assay; details: SF-268, 48 h, read-out: Activity
A549 [1] = experiment: Growth inhibition of human A549 cells assessed as cell growth at 1 mM after 48 hrs by SRB assay; details: A549, 48 h, read-out: Activity
HOP-62 = experiment: Growth inhibition of human HOP62 cells assessed as cell growth at 1 uM after 48 hrs by SRB assay; details: HOP-62, 48 h, read-out: Activity
UACC-62 = experiment: Growth inhibition of human UACC62 cells after 48 hrs by […] growth inhibition assay; details: UACC-62, 48 h
SK-OV-3 = experiment: Growth inhibition of human SKOV3 cells assessed as cell growth at 10 uM after 48 hrs by SRB assay; details: SK-OV-3, 48 h, read-out: Activity
UACC-257 [2] = experiment: Growth inhibition of human UACC257 cells assessed as cell growth at 10 uM after 48 hrs by SRB assay; details: UACC-257, 48 h, read-out: Activity
OVCAR-3 [3] = experiment: Growth inhibition of human OVCAR3 cells assessed as cell growth at 100 uM after 48 hrs by SRB assay; details: OVCAR-3, 48 h, read-out: Activity
Malme-3M = experiment: Growth inhibition of human MALME-3M cells assessed as cell growth at 1 mM after 48 hrs by SRB assay; details: read-out: Activity
SK-MEL-5 = experiment: Growth inhibition of human SK-MEL-5 cells assessed as cell growth at 100 uM after 48 hrs by SRB assay; details: SK-MEL-5, 48 h, read-out: Activity
UACC-257 [4] = experiment: Growth inhibition of human UACC257 cells after 48 hrs by […] growth inhibition assay; details: UACC-257, 48 h
NCI-H322M [5] = experiment: Growth inhibition of human NCI-H322M cells assessed as cell growth at 1 mM after 48 hrs by SRB assay; details: read-out: Activity
HCT-116 = experiment: Growth inhibition of human HCT116 cells assessed as cell growth at 0.1 uM after 48 hrs by SRB assay; details: HCT-116, 48 h, read-out: Activity
KM12 = experiment: Growth inhibition of human KM12 cells after 48 hrs by […] growth inhibition assay; details: KM12, 48 h
[6] = Growth inhibition of human […] cells after 48 hrs by […] growth inhibition assay
786-0 = experiment: Growth inhibition of human 786-0 cells after 48 hrs by […] growth inhibition assay; details: 786-0, 48 h
OVCAR-3 [7] = experiment: Growth inhibition of human OVCAR3 cells assessed as cell growth at 1 uM after 48 hrs by SRB assay; details: OVCAR-3, 48 h, read-out: Activity
MCF7 = experiment: Growth inhibition of human MCF7 cells assessed as cell growth at 0.1 uM after 48 hrs by SRB assay; details: MCF7, 48 h, read-out: Activity
MDA-MB-435 = experiment: Growth inhibition of human MDA-MB-435 cells assessed as cell growth at 1 mM after 48 hrs by SRB assay; details: MDA-MB-435, 48 h, read-out: Activity
NCI-H322M [8] = experiment: Growth inhibition of human NCI-H322M cells assessed as cell growth at 100 uM after 48 hrs by SRB assay; details: read-out: Activity
TK-10 = experiment: Growth inhibition of human TK10 cells assessed as cell growth at 10 uM after 48 hrs by SRB assay; details: TK-10, 48 h, read-out: Activity
A549 [9] = experiment: Growth inhibition of human A549 cells assessed as cell growth at 100 uM after 48 hrs by SRB assay; details: A549, 48 h, read-out: Activity
BT-549 [10] = experiment: Growth inhibition of human BT549 cells assessed as cell growth at 1 uM after 48 hrs by SRB assay; details: BT-549, 48 h, read-out: Activity
DU-145 = experiment: Growth inhibition of human DU145 cells assessed as cell growth at 1 mM after 48 hrs by SRB assay; details: DU-145, 48 h, read-out: Activity
OVCAR-5 = experiment: Growth inhibition of human OVCAR5 cells assessed as cell growth at 1 uM after 48 hrs by SRB assay; details: OVCAR-5, 48 h, read-out: Activity
T47D = experiment: Growth inhibition of human T47D cells after 48 hrs by […] growth inhibition assay
COLO 205 = experiment: Growth inhibition of human COLO205 cells assessed as cell growth at 10 uM after 48 hrs by SRB assay; details: COLO 205, 48 h, read-out: Activity
SF-539 = experiment: Growth inhibition of human SF539 cells assessed as cell growth at 0.1 uM after 48 hrs by SRB assay; details: SF-539, 48 h, read-out: Activity
SNB-19 = experiment: Growth inhibition of human SNB19 cells assessed as cell growth at 1 mM after 48 hrs by SRB assay; details: SNB-19, 48 h, read-out: Activity
SK-MEL-2 = experiment: Growth inhibition of human SK-MEL-2 cells assessed as cell growth at 10 uM after 48 hrs by SRB assay; details: SK-MEL-2, 48 h, read-out: Activity
NCI-H226 = experiment: Growth inhibition of human NCI-H226 cells assessed as cell growth at 100 uM after 48 hrs by SRB assay; details: NCI-H226, 48 h, read-out: Activity
BT-549 [11] = experiment: Growth inhibition of human BT549 cells assessed as cell growth at 0.1 uM after 48 hrs by SRB assay; details: BT-549, 48 h, read-out: Activity
MOLT-4 = experiment: Growth inhibition of human MOLT4 cells assessed as cell growth at 10 uM after 48 hrs by SRB assay; details: MOLT-4, 48 h, read-out: Activity
SK-MEL-28 = experiment: Growth inhibition of human SK-MEL-28 cells assessed as cell growth at 10 uM after 48 hrs by SRB assay; details: SK-MEL-28, 48 h, read-out: Activity
[12] = read-out: LC50 (the source's name)
[13] = read-out: pLC50 (the source's name) (converted)

CNC(=O)NC[C@H]1O[C@@H](n2cnc3c(NC(=O)Nc4ccccc4)ncnc32)[C@H](O[Si](C)(C)C(C)(C)C)[C@@H]1O[Si](C)(C)C(C)(C)C
growth at 0.1 µM (SF-268): 104%
growth at 1000 µM (A549 [1]): -30%
growth at 1 µM (HOP-62): 108%
GI50 (UACC-62; read-out: GI50): 3.98 µM
CC50 (UACC-62; [12]): > 100 µM
TGI (UACC-62; read-out: TGI): 23.6 µM
GI50 (UACC-62; read-out: pGI50 (converted)): 3.98 µM
CC50 (UACC-62; [13]): > 100 µM
TGI (UACC-62; read-out: pTGI (converted)): 23.4 µM
growth at 10 µM (SK-OV-3): 107%
growth at 10 µM (UACC-257 [2]): 104%
growth at 100 µM (OVCAR-3 [3]): -39%
growth at 1000 µM (Malme-3M): -48%
growth at 100 µM (SK-MEL-5): -42%
GI50 (UACC-257 [4]; read-out: GI50): 3.78 µM
CC50 (UACC-257 [4]; [12]): > 100 µM
TGI (UACC-257 [4]; read-out: TGI): 20.2 µM
GI50 (UACC-257 [4]; read-out: pGI50 (converted)): 3.8 µM
CC50 (UACC-257 [4]; [13]): > 100 µM
TGI (UACC-257 [4]; read-out: pTGI (converted)): 20 µM
growth at 1000 µM (NCI-H322M [5]): 21%
growth at 0.1 µM (HCT-116): 107%
GI50 (KM12; read-out: GI50): 2.13 µM
CC50 (KM12; [12]): 8.05 µM
TGI (KM12; read-out: TGI): 4.14 µM
GI50 (KM12; read-out: pGI50 (converted)): 2.14 µM
CC50 (KM12; [13]): 8.13 µM
TGI (KM12; read-out: pTGI (converted)): 4.17 µM
GI50 ([6]; read-out: GI50): 3.27 µM
CC50 [6, 12]: > 100 µM
TGI ([6]; read-out: TGI): > 100 µM
GI50 ([6]; read-out: pGI50 (converted)): 3.31 µM
CC50 [6, 13]: > 100 µM
TGI ([6]; read-out: pTGI (converted)): > 100 µM
GI50 (786-0; read-out: GI50): 2.04 µM
CC50 (786-0; [12]): 6.75 µM
TGI (786-0; read-out: TGI): 3.71 µM
GI50 (786-0; read-out: pGI50 (converted)): 2.04 µM
CC50 (786-0; [13]): 6.76 µM
TGI (786-0; read-out: pTGI (converted)): 3.72 µM
growth at 1 µM (OVCAR-3 [7]): 113%
growth at 0.1 µM (MCF7): 99%
growth at 1000 µM (MDA-MB-435): -10%
growth at 100 µM (NCI-H322M [8]): 39%
growth at 10 µM (TK-10): 112%
growth at 100 µM (A549 [9]): 4%
growth at 1 µM (BT-549 [10]): 112%
growth at 1000 µM (DU-145): -89%
growth at 1 µM (OVCAR-5): 99%
GI50 (T47D; read-out: GI50): 2.87 µM
CC50 (T47D; [12]): > 100 µM
TGI (T47D; read-out: TGI): 10.3 µM
GI50 (T47D; read-out: pGI50 (converted)): 2.88 µM
CC50 (T47D; [13]): > 100 µM
TGI (T47D; read-out: pTGI (converted)): 10.2 µM
growth at 10 µM (COLO 205): 105%
growth at 0.1 µM (SF-539): 100%
growth at 1000 µM (SNB-19): 7%
growth at 10 µM (SK-MEL-2): 105%
growth at 100 µM (NCI-H226): -7%
growth at 0.1 µM (BT-549 [11]): 113%

CNC(=O)OC[C@H]1O[C@@H](n2cnc3c(NC(=O)Nc4ccccc4)ncnc32)[C@H](O[Si](C)(C)C(C)(C)C)[C@@H]1O[Si](C)(C)C(C)(C)C
growth at 10 µM (SK-OV-3): 106%
growth at 10 µM (MOLT-4): 75.3%
growth at 10 µM (TK-10): 96%
growth at 10 µM (COLO 205): 106%
growth at 10 µM (SK-MEL-28): 102%
growth at 10 µM (SK-MEL-2): 82.9%
